# In patent publication US10723705B2, “Heterocyclic compounds and uses thereof” (Incyte Corporation, priority 2015, dated 2020):
# Biological target: Human recombinant Histone Deacetylase 8 (HDAC8) (Homo sapiens (Human), UniProt Q9BY41)
# Assay: HDAC8 Enzymatic Assay (HDAC-Glo I/II luminescence)
# Assay type: biochemical
# Conditions: HDAC8; read-out: IC50
# Experimental: HDAC-Glo™ I/II Assay Kit was purchased from Promega Corporation (Madison, Wis.), including the following components: HDAC-Glo I/II Buffer (25 mM Tris buffer, pH 8.0, supplemented with 137 mM: NaCl, 2.7 mM KCl, 1% v/v Triton X-100 and 1 mM: MgCl2), luminogenic substrates Boc-GAK(Ac)-aminoluciferin (HDAC-Glo I/II substrate), proprietary developer reagent (containing trypsin). Human recombinant Histone Deacetylase 8 (HDAC8) was purchased from Enzo Life Sciences (Plymouth Meeting, Pa.).
# The HDAC8 reaction was performed at room temperature in white 384-well polystyrene, flat-bottom microtiter plate (Greiner Bio-one, Monroe, N.C.) in a final volume of 20 μL. Test compounds were first diluted serially in DMSO and 100 nL were transferred to the plate wells by Echo 550 (Labcyte, Sunnyvale, Calif.) before the addition of other reaction components. The final concentration of DMSO in the assay was 0.5%. The HDAC-Glo I/II assay reagent was prepared by rehydration of lyophilized HDAC-Glo I/II substrate in 10 mL. HDAC-Glo I/II assay buffer followed with the addition of 10 μL of developer reagent. 10 uL of 3 nM HDAC8 in the HDAC-Glo I/II assay buffer were first dispensed into the microliter plate containing the compounds and incubated at room temperature for 30 min. The reactions were initiated with the addition of 10 uL HDAC-Glo I/II assay reagent with Multidrop (Thermo, Waltham, Mass.). The final concentration of HDAC8 and HDAC-Glo I/II substrate in the reaction were 1.5 nM and 50 μM, respectively. The assay plate was mixed for 1 min by orbital shaking (500 rpm) and centrifuged for 1 min at 1500 rpm. After 15 min at room temperature, luminescence signals were measured on TopCount (Perkin Elmer). Wells with no compound served as the positive controls and wells containing no HDAC8 were used as negative controls. IC50 determination was performed by fitting the curve of percentage control activity versus the log of the compound concentration using the GraphPad Prism 6.0 software.
# Chain of Human recombinant Histone Deacetylase 8 (HDAC8) (Q9BY41 whole entry): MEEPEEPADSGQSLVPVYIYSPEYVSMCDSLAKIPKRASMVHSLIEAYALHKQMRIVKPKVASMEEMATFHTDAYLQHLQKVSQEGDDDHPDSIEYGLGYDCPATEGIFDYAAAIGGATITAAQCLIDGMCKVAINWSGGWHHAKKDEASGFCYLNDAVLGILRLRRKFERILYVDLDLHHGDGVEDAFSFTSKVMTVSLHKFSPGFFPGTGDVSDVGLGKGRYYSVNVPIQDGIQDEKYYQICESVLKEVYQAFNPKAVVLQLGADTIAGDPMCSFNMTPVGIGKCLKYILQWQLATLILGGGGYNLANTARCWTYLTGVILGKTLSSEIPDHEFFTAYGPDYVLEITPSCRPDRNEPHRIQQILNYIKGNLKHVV
row,IC50 [nM],Compound
1,134,"O=C(NO)C(Cc1ccccc1)n1nc2ccc(-c3ccccc3)cc2c1C#CC1CC1 (centres unmarked) [Compound I-0025, 2-[3-(Cyclopropylethynyl)-5-phenyl-2H-indazol-2-yl]-hydroxy-3-phenylpropanamide]"

# Same assay, conditions: class symbols, Table 14; read-out: HDAC8 IC50
row,IC50 [nM],Compound
1,> 500,"O=C(NO)C(Cc1ccccc1)n1ncc2cc(C3CC3)ccc21 (centres unmarked) [Compound I-0019, 2-(5-cyclopropyl-1H-indazol-1-yl)-N-hydroxy-3-phenylpropanamide]"
2,200 to 500,"CCc1ccc2c(cnn2C(Cc2ccccc2)C(=O)NO)c1 (centres unmarked) [Compound I-0020, 2-(5-ethyl-1H-indazol-1-yl)-N-hydroxy-3-phenylpropanamide]"
3,> 500,"O=C(NO)C(Cc1ccccc1)n1ncc2ccc(Br)cc21 (centres unmarked) [Compound I-0021, 2-(6-bromo-1H-indazol-1-yl)-N-hydroxy-3-phenylpropanamide]"
4,> 500,"O=C(NO)C(Cc1ccccc1)n1ncc2ccc(-c3ccccc3)cc21 (centres unmarked) [Compound I-0022, N-hydroxy-3-phenyl-2-(6-phenyl-1H-indazol-1-yl)propanamide]"
5,> 500,"O=C(NO)C(Cc1ccccc1)n1ncc2ccc(-c3cncnc3)cc21 (centres unmarked) [Compound I-0023, N-hydroxy-3-phenyl-2-(6-(pyrimidin-5-yl)-1H-indazol-1-yl)propanamide]"
6,> 500,"O=C(NO)C(Cc1ccccc1)n1cc2cc(Br)ccc2n1 (centres unmarked) [Compound I-0024, 2-(5-bromo-2H-indazol-2-yl)-N-hydroxy-3-phenylpropanamide]"
7,50 to 200,"O=C(NO)C(Cc1ccccc1)n1nc2ccc(-c3ccccc3)cc2c1C#CC1CC1 (centres unmarked) [Compound I-0025, 2-[3-(Cyclopropylethynyl)-5-phenyl-2H-indazol-2-yl]-hydroxy-3-phenylpropanamide]"
8,≤ 50,"NC(=O)c1ccc(-c2ccc3nn(C(Cc4ccccc4)C(=O)NO)c(C#CC4CC4)c3c2)cc1 (centres unmarked) [Compound I-0026, 4-(3-(cyclopropylethynyl)-2-(1-(hydroxyamino)-1-oxo-3-phenylpropan-2-yl)-2H-indazol-5-yl)benzamide]"
9,200 to 500,"O=C(NO)C(Cc1ccccc1)n1nc2ccc(-c3c(F)cccc3F)cc2c1C#CC1CC1 (centres unmarked) [Compound I-0027, 2-(3-(cyclopropylethynyl)-5-(2,6-difluorophenyl)-2H-indazol-2-yl)-N-hydroxy-3-phenylpropanamide]"
10,≤ 50,"Cn1nccc1-c1ccc2nn(C(Cc3ccccc3)C(=O)NO)c(C#CC3CC3)c2c1 (centres unmarked) [Compound I-0028, 2-(3-(cyclopropylethynyl)-5-(1-methyl-1H-pyrazol-5-yl)-2H-indazol-2-yl)-N-hydroxy-3-phenylpropanamide]"
11,50 to 200,"O=C(NO)C(Cc1ccccc1)n1nc2ccc(-c3ccncc3)cc2c1C#CC1CC1 (centres unmarked) [Compound I-0029, 2-(3-(cyclopropylethynyl)-5-(pyridin-4-yl)-2H-indazol-2-yl)-N-hydroxy-3-phenylpropanamide]"
12,≤ 50,"O=C(NO)C(Cc1ccccc1)n1nc2ccc(-c3cncnc3)cc2c1C#CC1CC1 (centres unmarked) [Compound I-0030, 2-(3-(cyclopropylethynyl)-5-(pyrimidin-5-yl)-2H-indazol-2-yl)-N-hydroxy-3-phenylpropanamide]"
13,≤ 50,"COc1ncc(-c2ccc3nn(C(Cc4ccccc4)C(=O)NO)c(C#CC4CC4)c3c2)cn1 (centres unmarked) [Compound I-0031, 2-(3-(cyclopropylethynyl)-5-(2-methoxypyrimidin-5-yl)-2H-indazol-2-yl)-N-hydroxy-3-phenylpropanamide]"
14,≤ 50,"Cc1ccc2nn(C(Cc3ccccc3)C(=O)NO)c(C#CC3CC3)c2c1 (centres unmarked) [Compound I-0032, 2-(3-(cyclopropylethynyl)-5-methyl-2H-indazol-2-yl)-N-hydroxy-3-phenylpropanamide]"
15,50 to 200,"N/C(=N\O)c1ccc(-c2ccc3nn(C(Cc4ccccc4)C(=O)NO)cc3c2)cc1 (centres unmarked) [Compound I-0033, (Z)-N-hydroxy-2-(5-(4-(N′-hydroxy-carbamimidoyl)phen-yl)-2H-indazol-2-yl)-3-phenylpropanamide]"
16,200 to 500,"Cn1nccc1-c1ccc2nn(C(Cc3ccccc3)C(=O)NO)cc2c1 (centres unmarked) [Compound I-0034, N-hydroxy-2-(5-(1-methyl-1H-pyrazol-5-yl)-2H-indazol-2-yl)-3-phenylpropanamide]"
17,200 to 500,"COc1ncc(-c2ccc3nn(C(Cc4ccccc4)C(=O)NO)cc3c2)cn1 (centres unmarked) [Compound I-0035, N-hydroxy-2-(5-(2-methoxypyrimidin-5-yl)-2H-indazol-2-yl)-3-phenylpropanamide]"
18,> 500,"O=C(NO)C(Cc1ccccc1)n1cc2cc(-c3ccccc3)ccc2n1 (centres unmarked) [Compound I-0036, N-hydroxy-3-phenyl-2-(5-phenyl-2H-indazol-2-yl)propanamide]"
19,> 500,"O=C(NO)C(Cc1ccccc1)n1cc2ccc(F)cc2n1 (centres unmarked) [Compound I-0037, 2-(6-fluoro-2H-indazol-2-yl)-N-hydroxy-3-phenylpropanamide]"

row,IC50 [nM],Compound
1,> 500,"O=C(NO)C(Cc1ccccc1)n1cc2ccc(C(F)(F)F)cc2n1 (centres unmarked) [Compound I-0038, N-hydroxy-3-phenyl-2-(6-(trifluoromethyl)-2H-indazol-2-yl)propanamide]"
2,> 500,"Cc1cc2cn(C(Cc3ccccc3)C(=O)NO)nc2cc1Br (centres unmarked) [Compound I-0039, 2-(6-bromo-5-methyl-2H-indazol-2-yl)-N-hydroxy-3-phenylpropanamide]"
3,> 500,"Cc1ccc2cn(C(Cc3ccccc3)C(=O)NO)nc2c1 (centres unmarked) [Compound I-0040, N-hydroxy-2-(6-methyl-2H-indazol-2-yl)-3-phenylpropanamide]"
4,200 to 500,"O=C(NO)C(Cc1ccccc1)n1cnc2ccccc21 (centres unmarked) [Compound I-0041, 2-(1H-benzo[d]imidazol-1-yl)-N-hydroxy-3-phenylpropanamide]"
5,200 to 500,"O=C(NO)C(Cc1ccccc1)n1ncc2cnccc21 (centres unmarked) [Compound I-0042, N-hydroxy-3-phenyl-2-(1H-pyrazolo[4,3-c]pyridin-1-yl)propanamide]"
6,> 500,"O=C(NO)C(Cc1ccccc1)n1cc2cnccc2n1 (centres unmarked) [Compound I-0043, N-hydroxy-3-phenyl-2-(2H-pyrazolo[4,3-c]pyridin-2-yl)propanamide]"
7,50 to 200,"Cn1cc(-c2ccc3nn(C(Cc4ccccc4)C(=O)NO)c(C#CC4CC4)c3c2)cn1 (centres unmarked) [Compound I-0044, 2-(3-(cyclopropylethynyl)-5-(1-methyl-1H-pyrazol-4-yl)-2H-indazol-2-yl)-N-hydroxy-3-phenylpropanamide]"
8,50 to 200,"O=C(NO)C(Cc1ccccc1)n1nc2ccc(-c3cccnc3)cc2c1C#CC1CC1 (centres unmarked) [Compound I-0045, 2-(3-(cyclopropylethynyl)-5-(pyridin-3-yl)-2H-indazol-2-yl)-N-hydroxy-3-phenylpropanamide]"
9,200 to 500,"COc1ccc(-c2ccc3nn(C(Cc4ccccc4)C(=O)NO)c(C#CC4CC4)c3c2)cn1 (centres unmarked) [Compound I-0046, 2-(3-(cyclopropylethynyl)-5-(6-methoxypyridin-3-yl)-2H-indazol-2-yl)-N-hydroxy-3-phenylpropanamide]"
10,200 to 500,"Cn1nccc1-c1ccc2cn(C(Cc3ccccc3)C(=O)NO)nc2c1 (centres unmarked) [Compound I-0047, N-hydroxy-2-(6-(1-methyl-1H-pyrazol-5-yl)-2H-indazol-2-yl)-3-phenylpropanamide]"
11,> 500,"CN1CCC(c2ccc3cn(C(Cc4ccccc4)C(=O)NO)nc3c2)CC1 (centres unmarked) [Compound I-0048, N-hydroxy-2-(6-(1-methylpiperidin-4-yl)-2H-indazol-2-yl)-3-phenylpropanamide]"
12,> 500,"Cc1ccc2nn(C(Cc3ccccc3)C(=O)NO)cc2c1 (centres unmarked) [Compound I-0049, N-hydroxy-2-(5-methyl-2H-indazol-2-yl)-3-phenylpropanamide]"
13,200 to 500,"O=C(NO)C(Cc1ccccc1)n1cc2cc(-c3ccncc3)ccc2n1 (centres unmarked) [Compound I-0050, N-hydroxy-3-phenyl-2-(5-(pyridin-4-yl)-2H-indazol-2-yl)propanamide]"
14,200 to 500,"O=C(NO)C(Cc1ccccc1)n1cc2cc(-c3cncnc3)ccc2n1 (centres unmarked) [Compound I-0051, N-hydroxy-3-phenyl-2-(5-(pyrimidin-5-yl)-2H-indazol-2-yl)propanamide]"
15,> 500,"O=C(NO)C(Cc1ccccc1)n1cc2ccc(N3CCCCC3)cc2n1 (centres unmarked) [Compound I-0052, N-hydroxy-3-phenyl-2-(6-(piperidin-1-yl)-2H-indazol-2-yl)propanamide]"
16,200 to 500,"O=C(NO)C(Cc1ccccc1)n1cc2cncc(C#CC3CC3)c2n1 (centres unmarked) [Compound I-0053, 2-(7-(cyclopropylethynyl)-2H-pyrazolo[4,3-c]pyridin-2-yl)-N-hydroxy-3-phenylpropanamide]"
17,> 500,"O=C(NO)C(Cc1ccccc1)n1cc2cncc(I)c2n1 (centres unmarked) [Compound I-0054, N-hydroxy-2-(7-iodo-2H-pyrazolo[4,3-c]pyridin-2-yl)-3-phenylpropanamide]"
18,200 to 500,"O=C(NO)C(Cc1ccccc1)n1ncc2c(Cl)nccc21 (centres unmarked) [Compound I-0055, 2-(4-chloro-1H-pyrazolo[4,3-c]pyridin-1-yl)-N-hydroxy-3-phenylpropanamide]"
